pIC50: −log10 of the molar value.

The subject of this experiment is MOLM-13 cells. Description: MOLM-13 Cell Proliferation Assay (indicator of DHODH inhibition). The class given is cell-based. Conditions: Homo sapiens, 72 Hours of culture, CellTiter-Glo, no uridine. An outline of the steps: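 Proliferation readout via CellTiter-Glo luminescence after 72 h compound treatment (37 °C, 5% CO2, 0.5% DMSO) of MOLM-13 cells seeded at 10^4 per well in RPMI 1640/10% FBS, used as a DHODH-inhibition indicator since these cells rely on de novo pyrimidine synthesis.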
In the case of `Cc1nc(N(C)C)nc(N2CCc3c([nH]c4ccc(Cl)cc34)C2c2cnc(N3CCOCC3)nc2)n1` (centres unmarked) [Compound 290, 4-{6-chloro-1-[2-(morpholin-4-yl)pyrimidin-5-yl]-1,3,4,9-tetrahydro-2H-pyrido[3,4-b]indol-2-yl}-N,N,6-trimethyl-1,3,5-triazin-2-amine], the pIC50 was 7.71. Consider `C=Cc1ccc2[nH]c3c(c2c1)CCN(c1nccc(C(F)(F)F)n1)C3c1ccc(C)cc1` (centres unmarked) [Compound 291, 6-ethenyl-1-(4-methylphenyl)-2-[4-(trifluoromethyl)pyrimidin-2-yl]-2,3,4,9-tetrahydro-1H-pyrido[3,4-b]indole], for which the pIC50 is 8.36.

`Cc1ccc(C2c3[nH]c4c(N)cc(Cl)cc4c3CCN2c2nc(C)nc(C)n2)cc1` (centres unmarked) [Compound 292, 6-chloro-2-(4,6-dimethyl-1,3,5-triazin-2-yl)-1-(4-methylphenyl)-2,3,4,9-tetrahydro-1H-pyrido[3,4-b]indol-8-amine]: the pIC50 is 7.92. `COc1nc(C)nc(N2CCc3c([nH]c4ccc(Cl)cc34)C2c2cnc(N3CCOCC3)nc2)n1` (centres unmarked) [Compound 295, 6-chloro-2-(4-methoxy-6-methyl-1,3,5-triazin-2-yl)-1-[2-(morpholin-4-yl)pyrimidin-5-yl]-2,3,4,9-tetrahydro-1H-pyrido[3,4-b]indole] had a pIC50 of 7.83.

With `Cc1nc(N2CCOCC2)nc(N2CCc3c([nH]c4ccc(Cl)cc34)C2c2cnc(N3CCOCC3)nc2)n1` (centres unmarked) [Compound 296, 6-chloro-2-[4-methyl-6-(morpholin-4-yl)-1,3,5-triazin-2-yl]-1-[2-(morpholin-4-yl)pyrimidin-5-yl]-2,3,4,9-tetrahydro-1H-pyrido[3,4-b]indole], the pIC50 is 7.79. In the case of `CN(C)c1ncnc(N2CCc3c([nH]c4ccc(Cl)cc34)C2c2cnc(N3CCOCC3)nc2)n1` (centres unmarked) [Compound 297, 4-{6-chloro-1-[2-(morpholin-4-yl)pyrimidin-5-yl]-1,3,4,9-tetrahydro-2H-pyrido[3,4-b]indol-2-yl}-N,N-dimethyl-1,3,5-triazin-2-amine] it was 7.11; in that of `FC(F)(F)c1ccnc(N2CCc3c([nH]c4ccc(Br)cc34)C2c2cnc(N3CCOCC3)nc2)n1` (centres unmarked) [Compound 298, 6-bromo-1-[2-(morpholin-4-yl)pyrimidin-5-yl]-2-[4-(trifluoromethyl)pyrimidin-2-yl]-2,3,4,9-tetrahydro-1H-pyrido[3,4-b]indole], 8.92.

As to `Cc1nc(C)nc(N2CCc3c([nH]c4ccc(Br)cc34)C2c2cnc(N3CCOCC3)nc2)n1` (centres unmarked) [Compound 299, 6-bromo-2-(4,6-dimethyl-1,3,5-triazin-2-yl)-1-[2-(morpholin-4-yl)pyrimidin-5-yl]-2,3,4,9-tetrahydro-1H-pyrido[3,4-b]indole], the pIC50 is 8.17. In the case of `Cc1nc(C)nc(N2CCc3c([nH]c4ccc(-n5nccn5)cc34)C2c2cnc(N3CCOCC3)nc2)n1` (centres unmarked) [Compound 300, 2-(4,6-dimethyl-1,3,5-triazin-2-yl)-1-[2-(morpholin-4-yl)pyrimidin-5-yl]-6-(2H-1,2,3-triazol-2-yl)-2,3,4,9-tetrahydro-1H-pyrido[3,4-b]indole] it was 7.69; in that of `FC(F)(F)c1ccnc(N2CCc3c([nH]c4ccc(-n5cccn5)cc34)C2c2cnc(N3CCOCC3)nc2)n1` (centres unmarked) [Compound 301, 1-[2-(morpholin-4-yl)pyrimidin-5-yl]-6-(1H-pyrazol-1-yl)-2-[4-(trifluoromethyl)pyrimidin-2-yl]-2,3,4,9-tetrahydro-1H-pyrido[3,4-b]indole], 7.62. `COc1ccc2[nH]c3c(c2c1)CCN(c1nccc(C(F)(F)F)n1)C3c1cnc(N2CCOCC2)nc1` (centres unmarked) [Compound 302, 6-methoxy-1-[2-(morpholin-4-yl)pyrimidin-5-yl]-2-[4-(trifluoromethyl)pyrimidin-2-yl]-2,3,4,9-tetrahydro-1H-pyrido[3,4-b]indole] showed a pIC50 of 8.15.

Consider `FC(F)(F)c1ccnc(N2CCc3c([nH]c4ccc(Cl)cc34)C2c2ccc(N3CCOCC3)nc2)n1` (centres unmarked) [Compound 303, 6-chloro-1-[6-(morpholin-4-yl)pyridin-3-yl]-2-[4-(trifluoromethyl)pyrimidin-2-yl]-2,3,4,9-tetrahydro-1H-pyrido[3,4-b]indole], for which the pIC50 was 8.60. To `Cc1nc(C)nc(N2CCc3c([nH]c4c(N)cc(Cl)cc34)C2c2ccc(C)c(F)c2F)n1` (centres unmarked) [Compound 304, 6-chloro-1-(2,3-difluoro-4-methylphenyl)-2-(4,6-dimethyl-1,3,5-triazin-2-yl)-2,3,4,9-tetrahydro-1H-pyrido[3,4-b]indol-8-amine] belongs 7.03; to `Cc1ccc(C2c3[nH]c4ccc(Cl)cc4c3CCN2c2nccc(N(C)C)n2)c(F)c1F` (centres unmarked) [Compound 306, 2-[6-chloro-1-(2,3-difluoro-4-methylphenyl)-1,3,4,9-tetrahydro-2H-pyrido[3,4-b]indol-2-yl]-N,N-dimethylpyrimidin-4-amine], 7.70.

`Cc1ccc(C2c3[nH]c4ccc(Cl)cc4c3CCN2c2nccc(N(C)C)n2)cc1` (centres unmarked) [Compound 307, 2-[6-chloro-1-(4-methylphenyl)-1,3,4,9-tetrahydro-2H-pyrido[3,4-b]indol-2-yl]-N,N-dimethylpyrimidin-4-amine] had a pIC50 of 7.00. In the case of `Cc1cc(C)nc(N2CCc3c([nH]c4ccc(Cl)cc34)C2c2cnc(N3CCOCC3)nc2)n1` (centres unmarked) [Compound 308, 6-chloro-2-(4,6-dimethylpyrimidin-2-yl)-1-[2-(morpholin-4-yl)pyrimidin-5-yl]-2,3,4,9-tetrahydro-1H-pyrido[3,4-b]indole] it was 8.42; in that of `Cc1nc(C)nc(N2CCc3c([nH]c4c(N)cc(Cl)cc34)C2c2cnc(N3CCOCC3)nc2)n1` (centres unmarked) [Compound 309, 6-chloro-2-(4,6-dimethyl-1,3,5-triazin-2-yl)-1-[2-(morpholin-4-yl)pyrimidin-5-yl]-2,3,4,9-tetrahydro-1H-pyrido[3,4-b]indol-8-amine], 8.25; in that of `Cc1ccnc(N2CCc3c([nH]c4ccc(Cl)cc34)C2c2cnc(N3CCOCC3)nc2)n1` (centres unmarked) [Compound 312, 6-chloro-2-(4-methylpyrimidin-2-yl)-1-[2-(morpholin-4-yl)pyrimidin-5-yl]-2,3,4,9-tetrahydro-1H-pyrido[3,4-b]indole], 8.13. As for `Cc1nc(C)nc(N2CCc3c([nH]c4ccc([N+](=O)[O-])cc34)C2c2cnc(N3CCOCC3)nc2)n1` (centres unmarked) [Compound 313, 2-(4,6-dimethyl-1,3,5-triazin-2-yl)-1-[2-(morpholin-4-yl)pyrimidin-5-yl]-6-nitro-2,3,4,9-tetrahydro-1H-pyrido[3,4-b]indole], the pIC50 is 7.74. To `FC(F)(F)c1ccnc(N2CCc3c([nH]c4ccc(-n5cccc5)cc34)C2c2cnc(N3CCOCC3)nc2)n1` (centres unmarked) [Compound 314, 1-[2-(morpholin-4-yl)pyrimidin-5-yl]-6-(1H-pyrrol-1-yl)-2-[4-(trifluoromethyl)pyrimidin-2-yl]-2,3,4,9-tetrahydro-1H-pyrido[3,4-b]indole] belongs 7.65; to `CCCCN(CCCC)c1nc(C)nc(N2CCc3c([nH]c4ccc(Cl)cc34)C2c2cnc(N3CCOCC3)nc2)n1` (centres unmarked) [Compound 315, N,N-dibutyl-4-{6-chloro-1-[2-(morpholin-4-yl)pyrimidin-5-yl]-1,3,4,9-tetrahydro-2H-pyrido[3,4-b]indol-2-yl}-6-methyl-1,3,5-triazin-2-amine], 7.93. Regarding `CCCCOc1nc(C)nc(N2CCc3c([nH]c4ccc(Cl)cc34)C2c2cnc(N3CCOCC3)nc2)n1` (centres unmarked) [Compound 318, 2-(4-butoxy-6-methyl-1,3,5-triazin-2-yl)-6-chloro-1-[2-(morpholin-4-yl)pyrimidin-5-yl]-2,3,4,9-tetrahydro-1H-pyrido[3,4-b]indole], the pIC50 was 8.37. In the case of `FC(F)(F)c1ccnc(N2CCc3c([nH]c4ccc(Cl)cc34)C2c2ccc(Cl)nc2Cl)n1` (centres unmarked) [Compound 319, 6-chloro-1-(2,6-dichloropyridin-3-yl)-2-[4-(trifluoromethyl)pyrimidin-2-yl]-2,3,4,9-tetrahydro-1H-pyrido[3,4-b]indole] it was 7.09. The molecule `Cc1nc(C)nc(N2CCc3c([nH]c4c(N)cc(Cl)cc34)C2c2ccc(N3CCOCC3)nc2)n1` (centres unmarked) [Compound 321, 6-chloro-2-(4,6-dimethyl-1,3,5-triazin-2-yl)-1-[6-(morpholin-4-yl)pyridin-3-yl]-2,3,4,9-tetrahydro-1H-pyrido[3,4-b]indol-8-amine] gave a negative logarithm of the IC50 (pIC50) of 8.15. In the case of `Cc1ccc(C2c3[nH]c4ccc(Cl)cc4c3CCN2c2ncnc(C)n2)cc1` (centres unmarked) [Compound 322, 6-chloro-1-(4-methylphenyl)-2-(4-methyl-1,3,5-triazin-2-yl)-2,3,4,9-tetrahydro-1H-pyrido[3,4-b]indole] it was 7.59.

Molecule `O=[N+]([O-])c1ccc2[nH]c3c(c2c1)CCN(c1nccc(C(F)(F)F)n1)C3c1cnc(N2CCOCC2)nc1` (centres unmarked) [Compound 323, 1-[2-(morpholin-4-yl)pyrimidin-5-yl]-6-nitro-2-[4-(trifluoromethyl)pyrimidin-2-yl]-2,3,4,9-tetrahydro-1H-pyrido[3,4-b]indole] had a pIC50 of 8.44.

The molecule `Cc1nc(C)nc(N2CCc3c([nH]c4ccc(Cl)c([N+](=O)[O-])c34)C2c2cnc(N3CCOCC3)nc2)n1` (centres unmarked) [Compound 325, 4-[5-[6-chloro-2-(4,6-dimethyl-1,3,5-triazin-2-yl)-5-nitro-1,3,4,9-tetrahydropyrido[3,4-b]indol-1-yl]pyrimidin-2-yl]morpholine] showed a pIC50 of 6.78. In the case of `O=[N+]([O-])c1c(Cl)ccc2[nH]c3c(c12)CCN(c1nccc(C(F)(F)F)n1)C3c1cnc(N2CCOCC2)nc1` (centres unmarked) [Compound 326, 6-chloro-1-[2-(morpholin-4-yl)pyrimidin-5-yl]-5-nitro-2-[4-(trifluoromethyl)pyrimidin-2-yl]-2,3,4,9-tetrahydro-1H-pyrido[3,4-b]indole] it was 7.53. In the case of `Cc1nc(C)nc(N2CCc3c([nH]c4ccc(Cl)c(N)c34)C2c2cnc(N3CCOCC3)nc2)n1` (centres unmarked) [Compound 327, 6-chloro-2-(4,6-dimethyl-1,3,5-triazin-2-yl)-1-[2-(morpholin-4-yl)pyrimidin-5-yl]-2,3,4,9-tetrahydro-1H-pyrido[3,4-b]indol-5-amine] it was 7.50.

Source of the values: patent US20250186437A1, “CARBOLINE COMPOUNDS AND USE THEREOF” (PTC Therapeutics, Inc., priority 2021, published 2025).
